From patent US8193189B2, “Quinoxaline derivatives as tyrosine kinase activity inhibitors” (Novartis AG, priority 2007, dated 2012)

What was measured:
[1] = molecular target: T1, GST-JAK2(808-1132) (Homo sapiens, UniProt O60674); test: EPK JAK-family kinases profiling assay (Caliper mobility shift), JAK2; assay type: biochemical; conditions: ATP 20 μM, 1.8 nM kinase
T1 construct: GST-JAK2(808-1132); purchased Invitrogen (Carlsbad, USA) #4288
Description: (§1) All four kinases of the JAK-family kinases were used as purified recombinant GST-fusion proteins, containing the active kinase domains. GST-JAK1(866-1154), GST-JAK3(811-1124), and GST-TYK2(888-1187) were expressed and purified by affinity chromatography at the EPK biology unit. GST-JAK2(808-1132) was purchased from Invitrogen (Carlsbad, USA, #4288).
(§2) The kinase assays were based on the Caliper mobility shift assay using the LabChip 3000 systems. This technology is similar to capillary electrophoresis and uses charge driven separation of substrate and product in a microfluidic chip.
(§3) All kinase reactions were performed in 384 well microtiter plates in a total reaction volume of 18 μl. The assay plates were prepared with 0.1 μl per well of test compound in the appropriate test concentration, as described under the section “preparation of compound dilutions”. The reactions were started by combining 9 μl of substrate mix (consisting of peptide and ATP) with 9 μl of kinase dilution. The reactions were incubated for 60 minutes at 30° C. and stopped by adding 70 μl of stop buffer (100 mM Hepes, 5% DMSO, 0.1% Coating reagent, 10 mM EDTA, 0.015% Brij 35).
(§4) Fluorescently labeled synthetic peptides were used as substrates in all reactions. […] Specific assay conditions are described in Table 1:
(§5) The terminated reactions were transferred to the Caliper LabChip 3000 reader and the turnover of each reaction was measured by determining the substrate/product ratio.
(§6) Test compounds were dissolved in DMSO (10 mM) and transferred into 1.4 mL flat bottom or V-shaped Matrix tubes carrying a unique 2D matrix chip by individual compound hubs. The numbers of these chips were distinctively linked to the individual compound identification numbers. The stock solutions were stored at −20° C. if not used immediately. For the test procedure the vials were defrosted and identified by a scanner whereby a working sheet was generated that guided the subsequent working steps.
(§7) Compound dilutions were made in 96 well plates. This format enabled the assay of maximally 40 individual test compounds at 8 concentrations (single points) including 4 reference compounds. The dilution protocol included the production of pre-dilution plates, master plates and assay plates:
(§8) Pre-dilution plates: 96 polypropylene well plates were used as pre-dilution plates. A total of 4 pre-dilution plates were prepared including 10 test compounds each on the plate positions A1-A10, one standard compound at A11 and one DMSO control at A12. All dilution steps were done on a HamiltonSTAR robot.
(§9) Master plates: 100 μL of individual compound dilutions including standard compound and controls of the 4 “pre-dilution plates” were transferred into a 384 “master plate” including the following concentrations 1′820, 564, 182, 54.6, 18.2, 5.46, 1.82 and 0.546 μM, respectively in 90% of DMSO.
(§10) Assay plates: Identical assay plates were then prepared by pipetting 100 nL each of compound dilutions of the master plates into 384-well “assay plates”. […] The preparation of the master plates were handled by the Matrix PlateMate Plus robot and replication of assay plates by the HummingBird robot.

[2] = molecular target: T2, GST-JAK3(811-1124) (Homo sapiens, UniProt P52333); test: EPK JAK-family kinases profiling assay (Caliper mobility shift), JAK3; assay type: biochemical; conditions: ATP 80 μM, 6 nM kinase
T2 construct: GST-JAK3(811-1124); made in house
T2 sequence (P52333 811-1124): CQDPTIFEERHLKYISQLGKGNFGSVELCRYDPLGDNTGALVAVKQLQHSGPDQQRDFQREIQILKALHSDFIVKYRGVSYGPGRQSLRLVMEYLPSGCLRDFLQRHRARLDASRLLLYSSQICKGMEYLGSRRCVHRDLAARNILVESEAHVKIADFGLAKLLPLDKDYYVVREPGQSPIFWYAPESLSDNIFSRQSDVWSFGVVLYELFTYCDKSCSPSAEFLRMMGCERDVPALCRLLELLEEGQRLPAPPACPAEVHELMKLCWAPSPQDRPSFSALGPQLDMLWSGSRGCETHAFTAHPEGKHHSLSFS
Description: as §1, §2, §3, §4, §5, §6, §7, §8, §9, §10

[3] = test system: JAK/STAT pathway (JAK1/JAK2-dependent nuclear translocation of STAT1-GFP); test: Inhibition of the JAK/STAT pathway: IFN-γ stimulated nuclear translocation of STAT1-GFP in HT1080 fibrosarcoma cells; assay type: cell-based; conditions: Homo sapiens, HT-1080; HT1080 STAT1-GFP cells, 100 ng/ml IFN-γ 2 hours, compound added 30 min before; read-out: STAT1translo IC50
Description: The medium-throughput (96-well format), robust and reproducible cellular assay can be routinely used to assess the functional activation of Janus Kinases (JAKs), based on the nuclear translocation of their substrate, Signal Transducer and Activator of Transcription (STAT). Nuclear translocation can be monitored in HT1080 fibrosarcoma cells stably transfected with STAT1 fused to Green Fluorescence Protein (GFP). Stimulation with interferon-γ (IFN-γ) results in JAK1/JAK2-dependent nuclear translocation of STAT1-GFP that can be quantified using the Cellomics Cyto/NucTrans software package. This assay may be used to provide an assessment of the nuclear-cytoplasmic differential (NCD) of GFP-STAT1 using Hoechst dye to define the boundaries of the nucleus.
Compounds can be dissolved in DMSO to a final stock concentration of 10 mM and stored as aliquots at 4° C. Compounds may be pre-diluted in 100% DMSO at 10 mM, 3 mM 1 mM, 0.3 mM, 0.1 mM, 0.03 mM, 0.01 mM and 0.003 mM. Subsequently, compounds may be diluted in medium and added in 50 μl to the cells. The final compound concentrations tested may be 10 μM, 3 μM 1 μM, 0.3 μM, 0.1 μM, 0.03 μM, 0.01 μM and 0.003 μM and the final DMSO concentration can be 0.1%.
The plates may then be washed once in PBS, and 200 μl PBS finally added per well. The plates, being finally covered with a black adhesive, may be either read directly or stored at 4° C. for later imaging. Where appropriate, the compounds may be added 30 min before stimulation with IFN-γ.
The plates can be read on a Cellomics® ArrayscanII automated fluorescence microscope plate reader equipped with a Mercury-Xenon white light illumination source and a Zeiss Axiovert inverted microscope, using the XF100 dichroic/emission filter cube and matching excitation filters, 10× magnification, and a 0.3 numerical aperture objective. Image acquisition and analysis can be performed using a customized protocol based on the ‘NuclearTranslocation’ Bioapplication (for details, see Appendices). For each well, multiple images (fields) can be acquired until a minimum of 1000 cells are counted using two 2 channels: Channel 1 (Hoechst)=focus+nuclear mask, Channel 2 (GFP)=signal quantification in mask areas as outlined below.
Nuclei may be first identified based on the Hoechst staining and a mask generated for each nucleus that then serves as a template to generate a circle (eroded inwards by 1 pixel) and a 3 pixel-wide collar-like ring (off-set outwards by 1 pixel), in which the nuclear and cytoplasmic intensity of GFP, respectively, are quantified in the corresponding channel. High content analysis yields numerous measurements per cell and the GPF intensity differential between the nuclear and the cytoplasmic masks may be chosen as a measure of sub-cellular GFP-STAT1 relocation. The resulting values may be averaged for all cells in the well to return a single measurement plus standard deviation.

[4] = molecular target: T3, GST-JAK1(866-1154) (Homo sapiens, UniProt P23458); test: EPK JAK-family kinases profiling assay (Caliper mobility shift), JAK1; assay type: biochemical; conditions: ATP 40 μM, 50 nM kinase
T3 construct: GST-JAK1(866-1154); made in house
T3 sequence (P23458 866-1154): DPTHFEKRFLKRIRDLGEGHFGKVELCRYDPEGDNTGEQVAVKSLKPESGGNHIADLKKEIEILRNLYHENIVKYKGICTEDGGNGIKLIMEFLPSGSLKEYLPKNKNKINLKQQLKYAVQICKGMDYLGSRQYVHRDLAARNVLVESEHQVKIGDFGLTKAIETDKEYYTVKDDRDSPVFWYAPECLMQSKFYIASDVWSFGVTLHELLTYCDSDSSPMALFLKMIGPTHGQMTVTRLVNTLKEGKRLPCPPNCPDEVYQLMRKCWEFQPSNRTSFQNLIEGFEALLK
Description: as §1, §2, §3, §4, §5, §6, §7, §8, §9, §10

T1 sequence (O60674 808-1132): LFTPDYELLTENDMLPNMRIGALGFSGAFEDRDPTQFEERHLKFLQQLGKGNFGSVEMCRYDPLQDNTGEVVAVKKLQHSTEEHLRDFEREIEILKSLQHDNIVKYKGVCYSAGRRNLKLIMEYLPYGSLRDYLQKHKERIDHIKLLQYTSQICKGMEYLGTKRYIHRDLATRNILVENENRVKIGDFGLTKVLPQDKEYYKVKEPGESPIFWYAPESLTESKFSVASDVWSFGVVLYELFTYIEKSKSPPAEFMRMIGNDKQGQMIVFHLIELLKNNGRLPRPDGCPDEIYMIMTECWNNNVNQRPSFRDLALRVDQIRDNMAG

| Structure (SMILES) | IC50 [1] [nM] | IC50 [2] [nM] | IC50 [3] [nM] | IC50 [4] [nM] |
| --- | --- | --- | --- | --- |
| COc1cc(-c2cnc3cccc(-c4ccc(C(=O)N5CCOCC5)cc4F)c3n2)cc(OC)c1OC [Example 1, {3-Fluoro-4-[3-(3,4,5-trimethoxy-phenyl)-quinoxalin-5-yl]-phenyl}-morpholin-4-yl-methanone] | 82 | 4400 | – | – |
| COc1cc(-c2cnc3cccc(-c4ccc(S(C)(=O)=O)cc4)c3n2)cc(OC)c1OC [Example 2, 8-(4-Methanesulfonyl-phenyl)-2-(3,4,5-trimethoxy-phenyl)-quinoxaline] | 120 | 5400 | – | – |
| CCS(=O)(=O)c1ccc(-c2cccc3ncc(-c4cc(OC)c(OC)c(OC)c4)nc23)cc1 [Example 3, 8-(4-Ethanesulfonyl-phenyl)-2-(3,4,5-trimethoxy-phenyl)-quinoxaline] | 85 | 9400 | 10800 | – |
| COc1cc(-c2cnc3cccc(-c4ccc(S(=O)(=O)C(C)C)cc4)c3n2)cc(OC)c1OC [Example 4, 8-[4-(Propane-2-sulfonyl)-phenyl]-2-(3,4,5-trimethoxy-phenyl)-quinoxaline] | 220 | > 10000 | – | – |
| COc1cc(-c2cnc3cccc(-c4ccc(S(N)(=O)=O)cc4)c3n2)cc(OC)c1OC [Example 5, 4-[3-(3,4,5-Trimethoxy-phenyl)-quinoxalin-5-yl]-benzenesulfonamide] | 110 | > 10000 | – | – |
| CCNS(=O)(=O)c1ccc(-c2cccc3ncc(-c4cc(OC)c(OC)c(OC)c4)nc23)cc1 [Example 7, N-Ethyl-4-[3-(3,4,5-trimethoxy-phenyl)-quinoxalin-5-yl]-benzenesulfonamide] | 95 | 8420 | – | – |
| COc1cc(-c2cnc3cccc(-c4ccc(S(=O)(=O)N(C)C)cc4)c3n2)cc(OC)c1OC [Example 8, N,N-Dimethyl-4-[3-(3,4,5-trimethoxy-phenyl)-quinoxalin-5-yl]-benzenesulfonamide] | 110 | > 10000 | – | – |
| CNC(=O)c1ccc(-c2cccc3ncc(-c4cc(OC)c(OC)c(OC)c4)nc23)cc1 [Example 9, N-Methyl-4-[3-(3,4,5-trimethoxy-phenyl)-quinoxalin-5-yl]-benzamide] | 170 | > 10000 | – | – |
| COc1cc(-c2cnc3cccc(-c4ccc(CC(=O)N5CCOCC5)cc4)c3n2)cc(OC)c1OC [Example 11, 1-Morpholin-4-yl-2-{4-[3-(3,4,5-trimethoxy-phenyl)-quinoxalin-5-yl]-phenyl}-ethanone] | 9 | – | – | 39 |
| COc1cc(-c2cnc3cccc(-c4ccc(NS(C)(=O)=O)cc4)c3n2)cc(OC)c1OC [Example 12, N-{4-[3-(3,4,5-Trimethoxy-phenyl)-quinoxalin-5-yl]-phenyl}-methanesulfonamide] | 52.5 | > 10000 | – | 180 |
| COc1cc(-c2cnc3cccc(-c4ccc(CN5CCOCC5)cc4)c3n2)cc(OC)c1OC [Example 15, 8-(4-Morpholin-4-ylmethyl-phenyl)-2-(3,4,5-trimethoxy-phenyl)-quinoxaline] | – | > 10000 | – | – |
| COc1cc(-c2cnc3cccc(-c4ccc(C(=O)N5CCOCC5)c(C)c4)c3n2)cc(OC)c1OC [Example 16, {2-Methyl-4-[3-(3,4,5-trimethoxy-phenyl)-quinoxalin-5-yl]-phenyl}-morpholin-4-yl-methanone] | 19 | – | – | – |
| COc1cc(-c2cnc3cccc(-c4ccc(CN5CCS(=O)(=O)CC5)cc4)c3n2)cc(OC)c1OC [Example 19, 8-[4-(1,1-Dioxido-thiomorpholin-4-ylmethyl)-phenyl]-2-(3,4,5-trimethoxy-phenyl)-quinoxaline] | – | – | – | 59 |
| COc1cc(-c2cnc3cccc(-c4ccc(CN5CCOCC5)c(F)c4)c3n2)cc(OC)c1OC [Example 20, 8-(3-Fluoro-4-morpholin-4-ylmethyl-phenyl)-2-(3,4,5-trimethoxy-phenyl)-quinoxaline] | 24 | – | – | 160 |
| COc1cc(-c2cnc3cccc(-c4ccc(CN5CCOCC5)c(C)c4)c3n2)cc(OC)c1OC [Example 21, 8-(3-Methyl-4-morpholin-4-ylmethyl-phenyl)-2-(3,4,5-trimethoxy-phenyl)-quinoxaline] | – | – | – | 1800 |
| COc1ccc(-c2cnc3cccc(-c4ccc(S(C)(=O)=O)cc4)c3n2)cc1OC [Example 23, 2-(3,4-Dimethoxy-phenyl)-8-(4-methanesulfonyl-phenyl)-quinoxaline] | 200 | > 10000 | – | – |
| CS(=O)(=O)Nc1cccc(-c2cnc3cccc(-c4ccc(CC(=O)N5CCOCC5)cc4)c3n2)c1 [Example 38, N-(3-{8-[4-(2-Morpholin-4-yl-2-oxo-ethyl)-phenyl]-quinoxalin-2-yl}-phenyl)-methanesulfonamide] | 23 | 4200 | – | – |
| CCS(=O)(=O)c1ccc(-c2cccc3ncc(-c4cccc(NS(C)(=O)=O)c4)nc23)cc1 [Example 39, N-{3-[8-(4-Ethanesulfonyl-phenyl)-quinoxalin-2-yl]-phenyl}-methanesulfonamide] | 190 | > 10000 | – | – |
| CCS(=O)(=O)c1ccc(-c2cccc3ncc(-c4ccc(OCCOC)c(OC)c4)nc23)cc1 [Example 47] | 38 | > 10000 | – | – |
| CCS(=O)(=O)c1ccc(-c2cccc3ncc(-c4ccc(O)c(OC)c4)nc23)cc1 [Example 77, 4-[8-(4-Ethanesulfonyl-phenyl)-quinoxalin-2-yl]-2-methoxy-phenol] | 130 | 9800 | – | – |
| COc1cc(-c2cnc3cc(C)cc(-c4ccc(C(=O)N5CCOCC5)cc4)c3n2)cc(OC)c1OC [Example 79, {4-[7-Methyl-3-(3,4,5-trimethoxy-phenyl)-quinoxalin-5-yl]-phenyl}-morpholin-4-yl-methanone] | 520 | > 10000 | – | – |
